These results are taken from US11236095B2 (priority 2007, dated 2022).

The data set is described as follows: Human dose prediction (human PK parameter estimation). The settings on record: plasma, read-out: half-life, estimated (human) (converted).

As for `NC1(C(=O)N[C@@H](CCO)c2ccc(Cl)cc2)CCN(c2ncnc3[nH]ccc23)CC1` [Example 9, (S)-4-amino-N-(1-(4-chlorophenyl)-3-hydroxypropyl)-1-(7H-pyrrolo[2,3-d]pyrimidin-4-yl)piperidine-4-carboxamide], the half-life was around 6 h.

Broadly, the half-life is how long it takes for the measured level to halve.
